Values of other authors, collected in patent EP1844782A1 (priority 2006, dated 2007).

Tested on: EAE
Conditions: EAE (Craner et al., 2005)

With `O=C1NC(=O)C(c2ccccc2)(c2ccccc2)N1` [phenytoin] as the compound, how does the “ameliorates the inflammatory cell infiltrate in EAE” value read?
Its value is 75%.
